Experimental data: patent US6008234A, “Benzamidine derivatives substituted by cyclic amino acid and cyclic hydroxy acid derivatives and their use as anti-coagulants” (Berlex Laboratories, Inc., priority 1997, dated 1999)
Non-standard residues stand in square brackets, D forms with d. Residues, ends and D or L forms follow the SMILES beside them. *: point of attachment. pNA = O=[N+]([O-])c1ccc(N*)cc1

Tests used:
[1] = biological target: T1, Human tissue plasminogen activator (tPA) (Two chains, Sigma) (Homo sapiens, UniProt P00750); test: In vitro chromogenic assay for tPA (S2288 cleavage); assay type: biochemical; conditions: 10 nM tPA; pH 7.5; ambient temperature; substrate concentration stated equal to Km
T1 construct: purchased Sigma
T1 sequence (P00750 311-562 limits assumed): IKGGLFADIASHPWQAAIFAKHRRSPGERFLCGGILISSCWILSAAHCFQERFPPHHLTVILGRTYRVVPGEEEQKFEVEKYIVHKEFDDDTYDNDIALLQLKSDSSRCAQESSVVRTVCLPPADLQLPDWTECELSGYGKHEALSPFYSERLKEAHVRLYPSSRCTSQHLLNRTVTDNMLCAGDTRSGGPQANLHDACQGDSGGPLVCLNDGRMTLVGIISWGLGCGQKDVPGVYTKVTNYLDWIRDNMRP
T1 sequence (P00750 36-310 limits assumed): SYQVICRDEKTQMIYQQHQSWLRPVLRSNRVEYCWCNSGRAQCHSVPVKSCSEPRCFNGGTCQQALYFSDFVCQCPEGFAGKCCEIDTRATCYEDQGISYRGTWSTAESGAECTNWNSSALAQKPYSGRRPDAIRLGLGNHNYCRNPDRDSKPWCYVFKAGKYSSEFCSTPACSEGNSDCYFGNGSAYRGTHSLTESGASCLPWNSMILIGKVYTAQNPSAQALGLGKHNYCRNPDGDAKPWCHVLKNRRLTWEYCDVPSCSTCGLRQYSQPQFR
Protocol: (§1) The activities were determined as an initial rate of cleavage of the peptide p-nitroanilide by the enzyme. The cleavage product, p-nitroaniline, absorbs at 405 nm with a molar extinction coefficient of 9920 M^-1 cm^-1.
(§2) 50 mM TrisHCl, 150 mM NaCl, 2.5 mM CaCl2, and 0.1% polyethylene glycol 6000, pH 7.5.
3. Human tissue plasminogen activator (tPA) (Two chains, Sigma) stock solution: 1 mg/mL, stored at -80° C. (working solution (2×): 1361 ng/mL in assay buffer, prepare prior to use).
3. S2288 (tPA assay) stock solution: 10 mM in deionized H2 O, stored at 4° C. (working solution (4×): 1484 μM in assay buffer).
Assays were performed in 96-well microtiter plates in a total volume of 200 μl. […] Concentrations of the standard inhibitor compound in the assay were from 5 μM to 0.021 μM in 1 to 3 dilution. Concentration of the test compounds in the assay typically were from 10 μM to 0.041 μM in 1 to 3 dilution. […]
(§3) The enzyme kinetics were measured at 405 nm at 10 seconds intervals for five minutes in a THERMOmax plate reader at ambient temperature.
(§4) Enzyme rates were calculated as mOD/min based on the first two minutes readings. The IC50 values were determined by fitting the data to the log-logit equation (linear) or the Morrison equation (non-linear) with an EXCEL spread-sheet. […]

[2] = biological target: T2, Human thrombin (Homo sapiens, UniProt P00734); test: In vitro chromogenic assay for thrombin (S2302 cleavage); assay type: biochemical; conditions: 20 nM thrombin; pH 7.5; ambient temperature; substrate concentration stated equal to Km
T2 construct: Human thrombin stock solution; purchased Enzyme Research Lab
Protocol: as §1, §2
2. Human thrombin stock solution: Stored at -80° C. (working solution (2×): 1200 ng/mL or 40 nM in assay buffer, prepare prior to use).
2. S2302 (Thrombin assay) stock solution: 10 mM in deionized H2 O, stored at 4° C. (working solution (4×): 1200 μM in assay buffer).
Assays were performed in 96-well microtiter plates in a total volume of 200 μl. […] Concentrations of the standard inhibitor compound in the assay were from 5 μM to 0.021 μM in 1 to 3 dilution. Concentration of the test compounds in the assay typically were from 10 μM to 0.041 μM in 1 to 3 dilution. For potent test compounds, the concentrations used in the factor Xa assay were further diluted 100 fold (100 nM to 0.41 nM) or 1000 fold (10 nM to 0.041 nM). […]
as §3, §4

CC[C@@H](C)[C@@H](N)C(=O)N1CCC[C@H]1C(=O)N[C@@H](CCCN=C(N)N)C(=O)Nc1ccc([N+](=O)[O-])cc1 [Example S2288] (H-[dI]-Pro-Arg-pNA)
Km [1]: 371 µM

N=C(N)NCCC[C@H](NC(=O)[C@H](Cc1ccccc1)NC(=O)[C@H]1CCCN1)C(=O)Nc1ccc([N+](=O)[O-])cc1 [Example S2302] (H-[dP]-Phe-Arg-pNA)
Km [2]: 300 µM
